Assay results reported in patent US7303889B2, “Ligand for G-protein coupled receptor GPR43 and uses thereof” (Euroscreen S.A., priority 2002, dated 2007).
Where two headings read alike, the source gives them in different places.

Columns and labels:
human GPR43 [1] = target: T1, human GPR43 (Homo sapiens, UniProt O15552); experiment: Accumulation of GTPγ[35S] binding on membranes from CHO-K1 cells expressing human GPR43; type: biochemical; design: expressed in transfected cells; conditions: for activity on GTPγ[35S] binding / order of agonist potency: single concentration of each compound, FIG. 8
T1 sequence (O15552 1-330): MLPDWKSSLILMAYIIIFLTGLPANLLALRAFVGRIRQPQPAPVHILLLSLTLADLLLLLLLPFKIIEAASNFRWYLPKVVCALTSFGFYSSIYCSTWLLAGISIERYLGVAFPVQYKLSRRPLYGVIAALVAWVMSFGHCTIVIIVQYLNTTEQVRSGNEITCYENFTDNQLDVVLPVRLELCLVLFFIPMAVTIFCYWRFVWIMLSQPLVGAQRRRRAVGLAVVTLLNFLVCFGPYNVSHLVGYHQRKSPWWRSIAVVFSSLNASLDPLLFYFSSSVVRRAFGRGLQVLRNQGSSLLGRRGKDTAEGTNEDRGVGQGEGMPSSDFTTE
Description: For GPCRs such as GPR43, a measure of receptor activity is the binding of GTP by cell membranes containing receptors. In the method described by Traynor and Nahorski, 1995, Mol. Pharmacol. 47: 848-854, incorporated herein by reference, one essentially measures G-protein coupling to membranes by detecting the binding of labelled GTP. For GTP binding assays, membranes isolated from cells expressing the receptor are incubated in a buffer containing 20 mM HEPES, pH 7.4, 100 mM NaCl, and 10 mM MgCl2, 80 pM ^35S-GTPγS and 3 μM GDP. The assay mixture is incubated for 60 minutes at 30° C., after which unbound labelled GTP is removed by filtration onto GF/B filters. Bound, labelled GTP is measured by liquid scintillation counting. In order to assay for modulation of propionate-induced GPR43 activity, membranes prepared from cells expressing a GPR43 polypeptide are mixed with propionate, and the GTP binding assay is performed in the presence and absence of a candidate modulator of GPR43 activity. […] In this case, propionate-stimulated GTP binding is used as a standard. […] GTPase activity is measured by incubating the membranes containing a GPR43 polypeptide with γ^32P-GTP. Active GTPase will release the label as inorganic phosphate, which is detected by separation of free inorganic phosphate in a 5% suspension of activated charcoal in 20 mM H3PO4, followed by scintillation counting. Controls include assays using membranes isolated from cells not expressing GPR43 (mock-transfected), in order to exclude possible non-specific effects of the candidate compound.
The activity of acetate was examined in a membrane-based functional test.
The activity of other SCFA and related compounds (alcohols, aldehydes, cetone, di-acids . . . ) was evaluated using a single concentration of each in the membrane-cell based assay.

[2] = system: non related human G-protein coupled receptors; experiment: GTPγ[35S] binding on ten membrane preparations of CHO-K1 cells expressing non related human GPCRs; type: biochemical
[3] = system: human polymorphonuclear (PMN) leukocytes; conditions: Naccache et al, Fonteriz et al, Nakao et al; cited from earlier work
human GPR43 [4] = target: T1, human GPR43; experiment: Production of inositol phosphates in CHO-K1 cells stably expressing human GPR43; type: cell-based; design: expressed in transfected cells; conditions: PTX-pretreatment prior to stimulation; FIG. 10
[5] = system: peripheral blood neutrophils; experiment: Chemotactic response of neutrophilic granulocytes (48-well chamber); type: cell-based, human; conditions: for shape of chemotactic dose-response: FIG. 17
Description: Peripheral blood mononuclear cells were purified from buffy coats of healthy volunteers as previously described (Struyf S, De Meester I, Scharpe S, Lenaerts J P, Menten P, Wang J M, Proost P, Van Damme J., Eur J Immunol Apr. 28, 1998; 28 (4):1262-71). For intracellular calcium measurements, the cells were loaded for 30 min at room temperature with Fura-2AM (Molecular Probes). Calcium transients were monitored by a LS50B spectrofluorimeter (Perkin Elmer) as described (Grynkiewicz G, Poenie M, Tsien R Y., J Biol Chem Mar. 25, 1985;260(6):3440-50) at a final cell concentration of 10^6 cells/ml in buffer containing 125 μM probenecid. Chemotaxis was assessed in 48-well chambers using polycarbonate filter membranes with 3 μm (mesh size) (Neuroprobes, Inc.). The results are represented as chemotactic index (FIG. 17).
Freshly isolated peripheral blood neutrophils from healthy donors were tested for their chemotactic response to sodium acetate and propionate.

human GPR43 [6] = target: T1, human GPR43; conditions: library at 1-100 μM; confirmed by a dose response curve
Description: (§1) Additional related compounds were tested using the same cells.

human GPR43 [7] = target: T1, human GPR43; experiment: Inhibition of forskolin-stimulated adenylate cyclase activity in CHO-K1 cells stably expressing human GPR43; type: cell-based; design: expressed in transfected cells
Description: as §1
SCFA, ranging from 1 carbon to 4 carbon, were tested on CHO-K1 cells stably expressing the human GPR43 for their ability to inhibit the activity of adenylate cyclase stimulated with forskolin.

[8] = system: other GPCRs, such as motilin or histamine H1 receptor; conditions: Gqi only or cDNAs for other GPCRs; data not shown
[9] = system: human polymorphonuclear (PMN) leukocytes; experiment: Mobilization of intracellular calcium in human neutrophils (Fura-2); type: cell-based; conditions: for EC50: FIG. 15 and 16, read-out: EC50 for increase of intracellular calcium
Description: The following experiments were conducted to test whether the human polymorphonuclear (PMN) leukocytes could be activated with acetate and propionate, since the receptor is strongly expressed in peripheral blood cells containing mainly PMNs. Activation was determined by the quantification of the intracellular calcium mobilized from internal pool after activation by acetate and propionate of the cell membrane receptor. PMN were purified from the venous blood of healthy volunteers. Cells were isolated according to established methods. For intracellular calcium measurements, the cells were loaded for 30 min at room temperature with Fura-2AM (Molecular Probes). […] Briefly, neutrophils suspensions (1×10^7 cells/ml) were incubated with 2 μM Fura-2/AM for 30 minutes at 37° C. The cells were then washed free of the extracellular probe, resuspended at 5×10^6 cells/ml and allowed to reequilibrate for 10 minutes at 37° C. Cells were then transferred to the thermostatted cuvette compartment (37° C.) of the fluorometer and the fluorescence monitored (excitation and emission […], 340 and 510 nm respectively).

human GPR43 [10] = target: T1, human GPR43; experiment: Structure-activity relationships of SCFAs and related compounds on human GPR43 (FIG. 12); design: expressed in transfected cells; conditions: compared with corresponding non-substituted active compounds
[11] = CHO-K1 cells stably expressing human GPR43, FIG. 4

Question: With `CC=O` [acetaldehyde] as the compound, how does the “activity on GTPγ[35S] binding” value (human GPR43 [1]) read?
Answer: The value was “Inactive”.

Question: With `CC(=O)O` [acetate] as the compound, how does the “stimulation of GTPγ[35S] binding in membranes with non related receptors” value [2] read?
Answer: Its value is “not able to stimulate any binding”.

Question: And the “EC50 for cytoplasmic calcium mobilization in PMN” value [3]?
Answer: Its value is “millimolar”.

Question: And the “PTX sensitivity of the accumulation of total inositol phosphates” value (human GPR43 [4])?
Answer: The value was “non PTX sensitive”.

Question: And the “activation of GTPγ[35S] binding, sodium versus ammonium salt” value (human GPR43 [1]; assay buffer containing 120 mM sodium or potassium, FIG. 7)?
Answer: The value was “equipotent”.

Question: And the “potency on accumulation of GTPγ[35S] binding” value (human GPR43 [1]; compared with the cell-based cAMP assay, FIG. 6)?
Answer: Its value is “comparable to that observed in the cell-based functional assay monitoring cAMP levels”.

Question: And the “order of agonist potency” value (human GPR43 [1])?
Answer: Its value is “acetate=propionate>n-butyrate=isobutyrate=n-valerate=caproate>>formate>>pyruvate=acetoacetate”.

Question: And the “shape of chemotactic dose-response” value [5]?
Answer: The value was “classical bell-shaped dose-response curve”.

Question: And the “result of ligand screening” value (human GPR43 [6])?
Answer: The value was “specific activity”.

Question: And the “decrease of forskolin-stimulated adenylate cyclase activity” value (human GPR43 [7])?
Answer: Its value is 75%.

Question: What about the “rank order of potency to inhibit forskolin-stimulated adenylate cyclase” value (human GPR43 [7]) of the same compound?
Answer: Its value is “C2 (acetate)≧C3 (propionate)>C4 (butyrate)>>C1 (formate)”.

Question: And the “observed effect on adenylate cyclase after overnight preincubation with Pertussis Toxin (PTX)” value (human GPR43 [7]; FIG. 5)?
Answer: Its value is “totally abolished”.

Question: And the “activation of control cells (inositol phosphates)” value [8]?
Answer: The value was “not activated”.

Question: What about the “effect of increasing concentration on intracellular calcium” value [9] of the same compound?
Answer: Its value is “concentration-dependent increase of intracellular calcium”.

Question: And the EC50 [9]?
Answer: The EC50 was 537 µM.

Question: For f-met-leu-phe [fMLP], which “maximal chemotactic index relative to SCFA” value ([5]; on average, data not shown) is on record?
Answer: The value was “at least 3 fold”.

Question: Which “order of agonist potency” value (human GPR43 [1]) does the source give for `CC(=O)CC(=O)O` [acetoacetate] here?
Answer: The value was “acetate=propionate>n-butyrate=isobutyrate=n-valerate=caproate>>formate>>pyruvate=acetoacetate”.

Question: And the “activity on human GPR43” value (human GPR43 [10])?
Answer: Its value is “decreased but consistent activity”.

Question: With `N[C@@H](CO)C(=O)O` [serine] as the compound, how does the “activity on human GPR43” value (human GPR43 [10]) read?
Answer: Its value is “abolished the activity”.

Question: What does the source list for `CCC(=O)O` [propionate]?
Answer: stimulation of GTPγ[35S] binding in membranes with non related receptors ([2]; adenosine A1, adrenergic 2C, CRF 1, CCR3, LTB4, M4, neuropeptide FF 2S, opioid 3, 5-HT1A, sst5 receptors): not able to stimulate any binding; EC50 for cytoplasmic calcium mobilization in PMN [3]: millimolar; PTX sensitivity of the accumulation of total inositol phosphates (human GPR43 [4]): non PTX sensitive; order of agonist potency (human GPR43 [1]): acetate=propionate>n-butyrate=isobutyrate=n-valerate=caproate>>formate>>pyruvate=acetoacetate; shape of chemotactic dose-response [5]: classical bell-shaped dose-response curve; decrease of forskolin-stimulated adenylate cyclase activity (human GPR43 [7]; [11]): 75%; rank order of potency to inhibit forskolin-stimulated adenylate cyclase (human GPR43 [7]; SCFA from 1 carbon to 4 carbon, FIG. 4): C2 (acetate)≧C3 (propionate)>C4 (butyrate)>>C1 (formate); effect of increasing concentration on intracellular calcium [9]: concentration-dependent increase of intracellular calcium; EC50 ([9]; Leukocyte): 540 µM

Question: Which “decrease of forskolin-stimulated adenylate cyclase activity” value (human GPR43 [7]; [11]) does the source give for `CCCC(=O)O` [butyrate] here?
Answer: Its value is 75%.

Question: With `O=C(O)CCC(=O)O` [succinate] as the compound, how does the “activity on GTPγ[35S] binding” value (human GPR43 [1]) read?
Answer: Its value is “Inactive”.

Question: And the “activity on human GPR43” value (human GPR43 [10])?
Answer: Its value is “abolished the signal”.

Question: Which “activity on GTPγ[35S] binding” value (human GPR43 [1]) does the source give for `NCCCC(=O)O` [GABA] here?
Answer: Its value is “Inactive”.

Question: What does the source list for `O=CO` [formate]?
Answer: activation of the human receptor (maximal response compared to acetate and propionate) (human GPR43 [1]; data not shown): partly activate; order of agonist potency (human GPR43 [1]): acetate=propionate>n-butyrate=isobutyrate=n-valerate=caproate>>formate>>pyruvate=acetoacetate; decrease of forskolin-stimulated adenylate cyclase activity (human GPR43 [7]): 75%; rank order of potency to inhibit forskolin-stimulated adenylate cyclase (human GPR43 [7]): C2 (acetate)≧C3 (propionate)>C4 (butyrate)>>C1 (formate)

Question: For `CCO` [ethanol], which “activity on GTPγ[35S] binding” value (human GPR43 [1]) is on record?
Answer: Its value is “Inactive”.

Question: With `O=C(O)CC(=O)O` [malonate] as the compound, how does the “activity on GTPγ[35S] binding” value (human GPR43 [1]) read?
Answer: The value was “Inactive”.

Question: What about the “activity on human GPR43” value (human GPR43 [10]) of the same compound?
Answer: The value was “abolished the signal”.

Question: What does the source list for `CC(O)CC(=O)O` (racemic) [DL-β-hydroxybutyrate]?
Answer: activity on GTPγ[35S] binding (human GPR43 [1]): Inactive; activity on human GPR43 (human GPR43 [10]): is not active

Question: With `NCC(=O)O` [glycine] as the compound, how does the “activity on human GPR43” value (human GPR43 [10]) read?
Answer: Its value is “decreased activity without abolishing it”.

Question: For `O=C(O)CC(O)(CC(=O)O)C(=O)O` [citrate], which “activity on GTPγ[35S] binding” value (human GPR43 [1]) is on record?
Answer: Its value is “Inactive”.

Question: What about the “activity on human GPR43” value (human GPR43 [10]) of the same compound?
Answer: Its value is “abolished the signal”.

Question: What does the source list for `O=C(O)C(=O)O` [oxalate]?
Answer: activity on GTPγ[35S] binding (human GPR43 [1]): Inactive; activity on human GPR43 (human GPR43 [10]): abolished the signal

Question: What does the source list for `N[C@@H](CCC(=O)O)C(=O)O` [L-glutamate]?
Answer: activity on GTPγ[35S] binding (human GPR43 [1]): Inactive; activity on human GPR43 (human GPR43 [10]): abolished the signal

Question: Which “order of agonist potency” value (human GPR43 [1]) does the source give for `CC(C)C(=O)O` [isobutyrate] here?
Answer: Its value is “acetate=propionate>n-butyrate=isobutyrate=n-valerate=caproate>>formate>>pyruvate=acetoacetate”.

Question: With `CC(C)=O` [acetone] as the compound, how does the “activity on GTPγ[35S] binding” value (human GPR43 [1]) read?
Answer: Its value is “Inactive”.

Question: With `CCCCCC(=O)[O-].CCCCCC(=O)[O-].[Ca+2]` [caproate] as the compound, how does the “order of agonist potency” value (human GPR43 [1]) read?
Answer: Its value is “acetate=propionate>n-butyrate=isobutyrate=n-valerate=caproate>>formate>>pyruvate=acetoacetate”.

Question: For `CCCCC(=O)O` [n-valerate], which “order of agonist potency” value (human GPR43 [1]) is on record?
Answer: Its value is “acetate=propionate>n-butyrate=isobutyrate=n-valerate=caproate>>formate>>pyruvate=acetoacetate”.
